Reference: publication PMC9687571, “Anti-Inflammatory Activity of Olive Oil Polyphenols—The Role of Oleacein and Its Metabolites” (Biomedicines, 2022)
Values joined by “and” are separate entries in the source; they are usually repeats but may differ in a detail not shown here. Identical values can stand only once. Like-named read-outs stand apart in the source and are kept apart here.

Legend:
[1] = molecular target: PLA2 + 5-LOX coupled system (Apis mellifera, UniProt P00630); experiment: biochemical; format: biochemical, Apis mellifera bee venom (PLA2), Glycine max (5-LOX); conditions: for IC50: read-out: IC50 PLA2 + 5-LOX coupled system; for inhibition at 100 µM: read-out: inhibition of PLA2 + 5-LOX coupled system
PLA2 + 5-LOX coupled system, sequence (P00630 whole entry, looked up): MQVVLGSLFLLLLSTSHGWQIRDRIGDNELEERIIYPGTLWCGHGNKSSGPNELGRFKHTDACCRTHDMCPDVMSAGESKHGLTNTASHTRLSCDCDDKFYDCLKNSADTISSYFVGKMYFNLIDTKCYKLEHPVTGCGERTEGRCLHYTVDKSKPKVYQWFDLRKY

5-LOX = molecular target: T1, 5-LOX (Glycine max, UniProt P08170); experiment: 5-LOX inhibition assay; format: biochemical, Glycine max (soybean); conditions: for IC50: read-out: IC50 5-LOX pure enzyme; for inhibition at 100 µM: read-out: inhibition of the 5-LOX enzyme
T1 construct: purchased Sigma-Aldrich
T1 sequence (P08170 1-839): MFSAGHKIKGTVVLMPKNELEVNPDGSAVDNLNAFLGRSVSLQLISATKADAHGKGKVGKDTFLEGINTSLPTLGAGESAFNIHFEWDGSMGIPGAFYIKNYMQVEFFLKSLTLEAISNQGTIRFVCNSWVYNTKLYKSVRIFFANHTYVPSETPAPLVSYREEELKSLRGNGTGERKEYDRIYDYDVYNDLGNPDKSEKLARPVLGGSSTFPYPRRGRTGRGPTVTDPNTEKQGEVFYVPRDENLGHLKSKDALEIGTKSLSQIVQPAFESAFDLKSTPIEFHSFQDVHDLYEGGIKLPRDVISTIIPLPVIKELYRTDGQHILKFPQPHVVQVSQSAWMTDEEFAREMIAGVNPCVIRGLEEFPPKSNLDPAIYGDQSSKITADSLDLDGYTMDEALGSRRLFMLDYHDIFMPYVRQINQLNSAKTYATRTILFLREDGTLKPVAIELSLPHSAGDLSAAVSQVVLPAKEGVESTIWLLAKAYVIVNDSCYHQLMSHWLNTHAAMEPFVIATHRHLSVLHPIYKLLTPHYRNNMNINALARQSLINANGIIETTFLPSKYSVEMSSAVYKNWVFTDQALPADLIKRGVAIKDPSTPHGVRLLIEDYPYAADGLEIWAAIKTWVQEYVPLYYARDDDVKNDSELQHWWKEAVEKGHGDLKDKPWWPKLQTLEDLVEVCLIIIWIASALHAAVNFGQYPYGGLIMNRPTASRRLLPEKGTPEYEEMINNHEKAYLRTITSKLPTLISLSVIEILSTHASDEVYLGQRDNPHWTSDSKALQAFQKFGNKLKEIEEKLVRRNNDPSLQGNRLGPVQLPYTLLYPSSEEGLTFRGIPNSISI

COX-1 = molecular target: T2, COX-1 (Ovis aries, UniProt P05979); experiment: COX-1 inhibition assay (COX fluorescent inhibitor assay kit); format: biochemical
T2 construct: purchased Cayman Chemical
T2 sequence (P05979 25-600): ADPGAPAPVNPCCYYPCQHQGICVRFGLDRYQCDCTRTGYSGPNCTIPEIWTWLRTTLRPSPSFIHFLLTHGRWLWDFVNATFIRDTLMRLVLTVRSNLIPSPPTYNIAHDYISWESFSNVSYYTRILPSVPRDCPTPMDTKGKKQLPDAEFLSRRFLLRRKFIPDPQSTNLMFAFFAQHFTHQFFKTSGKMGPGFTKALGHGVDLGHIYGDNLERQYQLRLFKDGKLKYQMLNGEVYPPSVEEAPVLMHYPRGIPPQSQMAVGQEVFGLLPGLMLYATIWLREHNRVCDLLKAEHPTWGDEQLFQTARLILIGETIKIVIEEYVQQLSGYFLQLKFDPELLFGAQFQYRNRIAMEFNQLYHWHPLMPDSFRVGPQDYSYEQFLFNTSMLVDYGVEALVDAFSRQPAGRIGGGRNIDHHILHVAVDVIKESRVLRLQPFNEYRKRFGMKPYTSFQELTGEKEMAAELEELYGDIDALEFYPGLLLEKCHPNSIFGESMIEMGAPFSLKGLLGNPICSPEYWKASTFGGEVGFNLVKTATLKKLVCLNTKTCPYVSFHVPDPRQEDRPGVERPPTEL
Description: (§1) COX assays were performed using the COX fluorescent inhibitor assay kit with some modifications. This assay was based on the reaction between prostaglandin G2 (PGG2), product of COX activity, and 10-acetyl-3,7-dihydroxyphenoxazine (ADHP), producing a highly fluorescent compound, resorufin. Briefly, 60 µL of Tris-HCl buffer (100 mM, pH 8.0), 5 µL of hemin, 5 µL of COX (COX-1 or COX-2) and 5 µL of increasing concentrations of each compound (6.25–100 µM) were added to each well in a black 96-well plate. After 5 min, at room temperature, the reaction started by adding 5 µL of ADHP and 20 µL of substrate (AA 0.5 mM with KOH 2.5 mM) in each well. After 3 min, the fluorescence was measured at 590 nm, setting the excitation wavelength at 535 nm, using a multiplate reader Synergy H1 Biotek. The results were expressed as % of COX inhibition and correspond to the mean ± SEM of four independent assays, each performed in duplicate. SC-560 was used as the positive control for COX-1 and Dup-697 was used as the positive control for COX-2 assay.

COX-2 = molecular target: T3, COX-2 (Homo sapiens, UniProt P35354); experiment: COX-2 inhibition assay (COX fluorescent inhibitor assay kit); format: biochemical
T3 construct: purchased Cayman Chemical
T3 sequence (P35354 18-604): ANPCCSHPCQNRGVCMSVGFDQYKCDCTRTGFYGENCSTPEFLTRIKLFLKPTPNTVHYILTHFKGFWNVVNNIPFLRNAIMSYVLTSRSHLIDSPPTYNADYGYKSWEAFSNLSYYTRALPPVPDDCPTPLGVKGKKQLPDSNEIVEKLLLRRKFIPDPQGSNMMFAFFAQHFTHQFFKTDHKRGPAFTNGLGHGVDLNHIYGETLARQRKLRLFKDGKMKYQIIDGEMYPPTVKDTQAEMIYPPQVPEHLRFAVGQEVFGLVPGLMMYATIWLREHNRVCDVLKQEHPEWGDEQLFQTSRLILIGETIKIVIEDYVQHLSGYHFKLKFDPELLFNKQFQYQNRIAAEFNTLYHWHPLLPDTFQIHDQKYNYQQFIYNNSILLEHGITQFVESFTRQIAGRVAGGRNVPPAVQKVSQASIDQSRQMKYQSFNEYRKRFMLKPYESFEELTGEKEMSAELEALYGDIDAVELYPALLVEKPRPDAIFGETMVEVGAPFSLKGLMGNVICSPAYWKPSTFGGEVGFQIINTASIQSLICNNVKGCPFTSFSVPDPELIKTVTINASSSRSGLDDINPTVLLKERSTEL
Description: as §1

Question: With `CC(=O)OCCc1ccc(O)c(O)c1` [AcHyTy, hydroxytyrosol acetate] as the molecule, how does the IC50 [1] read?
Answer: 73.5 µM

Question: And the inhibition at 100 µM [1]?
Answer: 86.1%

Question: What about the IC50 (5-LOX) of the same molecule?
Answer: 107 µM

Question: And the inhibition at 100 µM (5-LOX)?
Answer: 49%

Question: And the IC50 (COX-1)?
Answer: 0.3 µM

Question: And the IC50 (COX-2; read-out: IC50 COX-2)?
Answer: 13.3 µM

Question: Which inhibition at 100 µM [1] does the source give for `OCCc1ccc(O)c(O)c1` [HyTy, hydroxytyrosol] here?
Answer: 18.6%

Question: What about the inhibition at 100 µM (5-LOX; 100 µM, mean ± SEM) of the same molecule?
Answer: 22.2%

Question: And the IC50 (COX-1)?
Answer: 0.13 µM

Question: And the IC50 (COX-2; IC50 COX-2)?
Answer: 2.42 µM and 2.4 µM and < 3 µM

Question: With `C/C=C(/C=O)[C@@H](CC=O)CC(=O)OCCc1ccc(O)c(O)c1` [oleacein] as the molecule, how does the IC50 [1] read?
Answer: 16.1 µM

Question: And the inhibition at 100 µM [1]?
Answer: 100%

Question: And the inhibition at 100 µM (5-LOX; 100 µM, mean ± SEM)?
Answer: 58.1%

Question: What about the IC50 (5-LOX) of the same molecule?
Answer: 45 µM

Question: What about the IC50 (COX-1) of the same molecule?
Answer: 1.46 µM

Question: And the “inhibitory activity on COX-2, times greater than oleocanthal” value (COX-2; from IC50 1.27 µM versus 16.6 µM)?
Answer: 13 times

Question: What about the IC50 (COX-2; read-out: IC50 COX-2) of the same molecule?
Answer: 1.27 µM and < 3 µM

Question: What does the source list for `C/C=C(/C=O)[C@@H](CC=O)CC(=O)OCCc1ccc(O)cc1` [oleocanthal, reference compound]?
Answer: IC50 (COX-1): < 0.1 µM; IC50 (COX-2; read-out: IC50 COX-2): 16.6 µM

Question: `O=c1c(O)c(-c2ccc(O)c(O)c2)oc2cc(O)cc(O)c12` [quercetin, reference compound] was tested. Which inhibition at 100 µM (5-LOX; 100 µM, mean ± SEM) did it give?
Answer: 59.5%
